The structures appear in SMILES notation. Activity calls are given as the source filed them. How the calls were made is not given here.

In this assay the test system is C2C12 WNT3A-conditioned, nuclear beta-catenin. Nature of the assay: activation of β-catenin in the nucleus of C2C12, concentration-response, cell-based, Wnt-3a CM-treated, half-maximal inhibitory concentration (AID 1117325).
As to `Nc1ccc2cc3ccc(N)cc3nc2c1`, the IC50 is 5.99 µM (inactive).

For `Cc1nc(N)nc(N)c1-c1ccc(Cl)c(Cl)c1`, the IC50 is 0.0504 µM.

Turning to `C[C@@]12C(=O)OC(=O)[C@]1(C)C1CCC2O1`, the IC50 is > 20 µM (inactive).

In the case of `O[C@@H](c1cc(C(F)(F)F)nc2c(C(F)(F)F)cccc12)[C@H]1CCCCN1`, the IC50 is > 20 µM (inactive).

For `COC(=O)[C@H]1[C@H]2C[C@@H]3c4[nH]c5cc(OC)ccc5c4CCN3C[C@H]2C[C@@H](OC(=O)/C=C/c2ccc(O)c(OC)c2)[C@@H]1OC`, the IC50 is > 20 µM (inactive).

Turning to `Cc1cc(=O)c2c(O)c3c(O)cc(=O)c4c3c3c(cc(O)c1c23)C(C)(C)C=4O`, the half-inhibitory concentration (IC50) was 1.07 µM.

For `CCCOc1ccc2nc(NC(=O)OC)[nH]c2c1`, the IC50 is 0.365 µM.

With `O=C(Nc1ccc([N+](=O)[O-])cc1Cl)c1cc(Cl)ccc1O`, the IC50 was 1.57 µM.

Regarding `OCCN1CCN(CCCN2c3ccccc3Sc3ccc(Cl)cc32)CC1`, the IC50 is > 20 µM (inactive).

For the compound `O=C1C(I)=CC(=C(c2cc(I)c(O)c(I)c2)c2ccccc2C(=O)O)C=C1I`, the IC50 is > 20 µM (inactive).

As to `[O-][n+]1ccccc1SSc1cccc[n+]1[O-]`, the IC50 is 0.991 µM.

Turning to `CCCCc1ccc2nc(NC(=O)OC)[nH]c2c1`, the IC50 was 0.0336 µM.

Regarding `COc1cccc2c1C(=O)c1c(O)c3c(c(O)c1C2=O)C[C@@](O)(C(C)=O)C[C@@H]3O[C@H]1C[C@H](N)[C@H](O)[C@H](C)O1`, the IC50 was 0.369 µM.

On to `CN(C)C(=S)SSC(=S)N(C)C`, for which the IC50 is > 20 µM (inactive).

Turning to `CN1CC[C@H](c2c(O)cc(O)c3c(=O)cc(-c4ccccc4Cl)oc23)[C@H](O)C1`, the half-inhibitory concentration (IC50) is 0.19 µM.

As for `COC(=O)Nc1nc2ccc(C(=O)c3ccccc3)cc2[nH]1`, the IC50 is 1.74 µM.

`O=C1C2CC=CCC2C(=O)N1SC(Cl)(Cl)Cl` (centres undefined): the IC50 is > 20 µM (inactive).

With `CCc1nc(N)nc(N)c1-c1ccc(Cl)cc1`, the IC50 is 0.86 µM.

Consider `O=[N+]([O-])C(Br)(CO)CO`, for which the IC50 was > 20 µM (inactive).

Regarding `CC(=O)O[C@@]12CO[C@@H]1C[C@H](O)[C@@]1(C)C(=O)[C@H](O)C3=C(C)[C@@H](OC(=O)[C@H](O)[C@@H](NC(=O)OC(C)(C)C)c4ccccc4)C[C@@](O)([C@@H](OC(=O)c4ccccc4)[C@H]21)C3(C)C`, the IC50 was 0.0652 µM.

With `CC[C@]1(O)C[C@H]2CN(CCc3c([nH]c4ccccc34)[C@@](C(=O)OC)(c3cc4c(cc3OC)N(C=O)[C@H]3[C@@](O)(C(=O)OC)[C@H](OC(C)=O)[C@]5(CC)C=CCN6CC[C@]43[C@@H]65)C2)C1`, the half-maximal inhibitory concentration (IC50) was 0.004 µM.

On to `COc1cccc2c1C(=O)c1c(O)c3c(c(O)c1C2=O)C[C@@](O)(C(=O)CO)CC3OC1CC(N2CCOC(OC)C2)C(O)C(C)O1` (some centres undefined), for which the IC50 was 0.0135 µM.

Turning to `O=C(CCl)c1ccc(Cl)cc1Cl`, the IC50 was 0.373 µM.

As to `COc1cc(C=C2CCC/C(=C\c3ccc(O)c(OC)c3)C2=O)ccc1O`, the IC50 is 5.04 µM (inactive).

Consider `CCCCCCCCCCCCCCC[C@H](O)[C@@H](N)CO`, for which the IC50 was > 20 µM (inactive).

Take `Oc1c(Cl)cc(Cl)cc1Sc1cc(Cl)cc(Cl)c1O`: the IC50 was > 20 µM (inactive).

With `COc1cc([C@@H]2c3cc4c(cc3[C@@H](O[C@@H]3O[C@@H]5CO[C@@H](C)O[C@@H]5[C@H](O)[C@@H]3O)[C@H]3COC(=O)[C@H]23)OCO4)cc(OC)c1O`, the IC50 is > 20 µM (inactive).

With `NC(N)=NN=C(/C=C/c1ccc([N+](=O)[O-])o1)/C=C/c1ccc([N+](=O)[O-])o1`, the IC50 is > 20 µM (inactive).

Consider `CC(C)C[C@H](NC(=O)[C@H](CCc1ccccc1)NC(=O)CN1CCOCC1)C(=O)N[C@@H](Cc1ccccc1)C(=O)N[C@@H](CC(C)C)C(=O)[C@@]1(C)CO1`, for which the IC50 is 0.0292 µM.

Turning to `COCc1c(C(C)C)nc(C(C)C)c(/C=C/[C@@H](O)C[C@@H](O)CC(=O)O)c1-c1ccc(F)cc1`, the IC50 is 6.67 µM (inactive).

For `CN1C[C@H](CNC(=O)OCc2ccccc2)C[C@@H]2c3cccc4c3c(cn4C)C[C@H]21`, the IC50 is > 20 µM (inactive).

Turning to `CC[C@@H]([C@H](C)O)n1ncn(-c2ccc(N3CCN(c4ccc(OC[C@@H]5CO[C@@](Cn6cncn6)(c6ccc(F)cc6F)C5)cc4)CC3)cc2)c1=O`, the IC50 is 5.29 µM (inactive).

`CCC1=C[C@@H]2CN(C1)Cc1c([nH]c3ccccc13)[C@@](C(=O)OC)(c1cc3c(cc1OC)N(C)[C@H]1[C@@](O)(C(=O)OC)[C@H](OC(C)=O)[C@]4(CC)C=CCN5CC[C@]31[C@@H]54)C2`: the concentration for half-maximal inhibition (IC50) was 0.0089 µM.

On to `Cc1nc(Nc2ncc(C(=O)Nc3c(C)cccc3Cl)s2)cc(N2CCN(CCO)CC2)n1`, for which the IC50 was 0.104 µM.

Consider `Cc1ccc([N+](=O)[O-])[c]2c1[O][Hg]2`, for which the IC50 is 1.51 µM.

For `Cc1ccc2nc(N)[nH]c(=O)c2c1Sc1ccncc1`, the IC50 was 0.71 µM.

In the case of `Cc1cc(O)c2ccccc2c1O`, the IC50 was 4.39 µM.

Consider `O=C1c2c(O)ccc(O)c2C(=O)c2c(NCCNCCO)ccc(NCCNCCO)c21`, for which the IC50 is 0.0303 µM.

Take `c1ccc2c(c1)Sc1ccccc1N2CC1CN2CCC1CC2` (centres undefined): the IC50 is > 20 µM (inactive).

As for `COC(=O)Nc1nc2ccc(C(=O)C3CC3)cc2[nH]1`, the IC50 is 0.349 µM.

Turning to `COC(=O)c1nc(Cl)c(Cl)nc1N`, the IC50 is 0.308 µM.

On to `CCCCCCCCCCCCCC[N+](C)(C)C`, for which the IC50 was > 20 µM (inactive).

As for `CC[C@@]1(O)C(=O)OCc2c1cc1n(c2=O)Cc2cc3c(CN(C)C)c(O)ccc3nc2-1`, the IC50 is 0.134 µM.

For `CCN(CC)CCNc1ccc(CO)c2sc3ccccc3c(=O)c12`, the IC50 is > 20 µM (inactive).

Take `Cc1ccccc1C(=O)Nc1ccc(C(=O)N2CCCC(N(C)C)c3ccccc32)cc1` (centres undefined): the IC50 was 4.56 µM.

In the case of `CCCCCCCCCCOCC(O)CN` (centres undefined), the IC50 is > 20 µM (inactive).

On to `CCCCC1C(=O)N(c2ccccc2)N(c2ccc(O)cc2)C1=O` (centres undefined), for which the IC50 was > 20 µM (inactive).

In the case of `CC(=O)Oc1ccc(C2(c3ccc(OC(C)=O)cc3)Oc3ccccc3NC2=O)cc1`, the IC50 was > 20 µM (inactive).

As to `CCCSc1ccc2nc(NC(=O)OC)[nH]c2c1`, the IC50 was 1.28 µM.

As for `CSc1ccc2c(c1)C(N1CCN(C)CC1)Cc1ccccc1S2` (centres undefined), the IC50 is > 20 µM (inactive).

Take `CCCCCCCCCCCCNCCNCCNCC(=O)O`: the IC50 was > 20 µM (inactive).

As to `O=C1OC2(c3cc(Br)c(O)cc3Oc3c2cc(Br)c(O)[c]3[Hg])c2ccccc21` (centres undefined), the IC50 is 16.9 µM (inactive).

With `O=c1c(-c2ccccc2)c1-c1ccccc1`, the IC50 was > 20 µM (inactive).

Consider `Cc1ccc2c(Br)cc(Br)c(O)c2n1`, for which the IC50 is > 20 µM (inactive).

For the compound `Oc1c(I)cc(Cl)c2cccnc12`, the IC50 was > 20 µM (inactive).

Turning to `COc1cc([C@@H]2c3cc4c(cc3[C@H](O)[C@H]3COC(=O)[C@H]23)OCO4)cc(OC)c1OC`, the IC50 is 0.0131 µM.

Take `C[n+]1c2cc(N)ccc2cc2ccc(N)cc21` (tested in a mixture with another compound): the IC50 was > 20 µM (inactive).

Take `Cc1nc2ccc(CN(C)c3ccc(C(=O)N[C@@H](CCC(=O)O)C(=O)O)s3)cc2c(=O)[nH]1`: the IC50 was 0.0127 µM.

Regarding `Cc1cc2c(C(C)C)c(O)c(O)c(C=O)c2c(O)c1-c1c(C)cc2c(C(C)C)c(O)c(O)c(C=O)c2c1O`, the IC50 was 3.49 µM.
